Test results published in the OPERA property sets (Mansouri et al. 2018).
≈ marks a conversion by molar mass, not a printed value.

Row | Structure (SMILES) | boiling point [°C] | melting point [°C] | also measured
1 | CC(O)CN(CCN(CC(C)O)CC(C)O)CC(C)O (configuration not stated) |  |  | ready biodegradability: not readily biodegradable
2 | CC1CCCC(C)C1 (configuration not stated) | 122 |  | log10 vapour pressure (mmHg): 1.3
3 | O=C(O)C1CCCCC1 | 232 | 31.5 | 
4 | Cc1nc2n(c(=O)c1CCN1CCC(c3noc4cc(F)ccc34)CC1)CCCC2 |  | 170 | 
5 | CN1CCc2cc3c(cc2C1)OCO3 | 304 | 66 | 
6 | Nc1ccn([C@@H]2O[C@H](CO)[C@@H](O)[C@@H]2O)c(=O)n1 |  | 212 | 
7 | CCCC1CCCCC1 | 157 | -94.9 | log10 vapour pressure (mmHg): 0.622
8 | O=P(c1ccccc1)(c1ccccc1)c1ccccc1 |  | 156 | log10 vapour pressure (mmHg): -8.59
9 | COC(=O)c1ccccc1Br | 252 |  | 
10 | NCCc1cnc[nH]1 |  | 86 | 
11 | O=Cc1ccc(Br)cc1 |  | 67 | 
12 | O=C1CC[C@@]2(O)[C@H]3Cc4ccc(O)c5c4[C@@]2(CCN3CC2CC2)[C@H]1O5 |  | 169 | 
13 | CCCOc1ccccc1 | 190 | -27 | 
14 | CCCC(=O)OC(=O)CCC | 200 | -75 | log10 vapour pressure (mmHg): -0.548
15 | CCCCCCCCCCCCCCCCCC(=O)OCC(O)CO (configuration not stated) |  | 74 | ready biodegradability: readily biodegradable
16 | Nc1ccc2c(c1N)C(=O)c1ccccc1C2=O |  | 290 | 
17 | Oc1c(Cl)cc(Cl)c2ccccc12 |  | 108 | ready biodegradability: not readily biodegradable; log10 BCF (fish): 1.35
18 | O=P(O)(Oc1ccccc1)Oc1ccccc1 |  | 67.5 | 
19 | Cl[C@H]1CC[C@@H](Cl)CC1 |  | 18 | 
20 | O=C(O)CCCOc1ccc(Cl)cc1Cl | 324 | 118 | 
21 | CCCCCCCCCCCCCCCCCCCCCCCCCCCCCC(=O)O |  | 93.6 | 
22 | C[C@@H]1CCCC[C@@H]1C (racemic) |  | -70 | 
23 | C=C(C)c1cccc(C)c1 | 185 |  | 
24 | Cc1ccc(C(=O)Cl)cc1 | 226 | -3 | 
25 | NCC[C@H](O)C(=O)N[C@@H]1C[C@H](N)[C@@H](O[C@H]2O[C@H](CN)[C@@H](O)[C@H](O)[C@H]2O)[C@H](O)[C@H]1O[C@H]1O[C@H](CO)[C@@H](O)[C@H](N)[C@H]1O |  | 204 | 
26 | Cc1cc(N)n(-c2ccccc2)n1 | 333 | 116 | 

Row | Structure (SMILES) | boiling point [°C] | melting point [°C] | also measured
27 | CCOC(=O)c1ccc(Br)cc1 | 263 |  | 
28 | CNC(=O)NC(C)=O |  | 180 | 
29 | CCC(CC)COC(=O)CCCCCCCC(=O)OCC(CC)CC |  | -45 | 
30 | C/C=C/c1cc2c(c(=O)o1)C(=O)[C@@H](O)[C@H](C)O2 |  | 222 | 
31 | CC1(C)CCCC(C)(C)N1 | 156 |  | 
32 | CCCCOCCOC(C)=O | 192 | -63 | log10 Henry constant (atm·m³/mol): -5.26; log10 vapour pressure (mmHg): -0.426
33 | C=CC#CC=C | 85 | -88 | 
34 | C=C(Br)CBr | 141 |  | log10 vapour pressure (mmHg): 0.88
35 | CCCOC(=O)C(C)C | 135 |  | log10 vapour pressure (mmHg): 0.924
36 | c1ccc2c(c1)CCO2 | 188 | -21.5 | 
37 | CCc1ccc2ccc3cccc4ccc1c2c34 |  |  | log10 biotransformation half-life (days) (fish): 0.24
38 | CCOC(=O)C(Cl)(Cl)C(C)=O | 206 |  | 
39 | CCNCC.Cl |  | 228 | 
40 | Cc1cccc2ccoc12 | 190 | 109 | 
41 | CC(C)(C)OC(=O)C1(S(=O)(=O)c2ccc(Cl)cc2)CC1 |  | 110 | 
42 | CC(=O)OO | 110 | -0.2 | log10 Henry constant (atm·m³/mol): -5.67; log10 vapour pressure (mmHg): 1.16
43 | C=C[C@H]1C[N@@]2CCC1C[C@H]2c1[nH]c2ccccc2c1CCO |  | 186 | 
44 | Oc1ccc(Oc2ccccc2)cc1 |  | 84 | 
45 | Fc1ccc(F)c(F)c1F | 94.3 | -42 | log10 vapour pressure (mmHg): 1.69
46 | NC(=O)c1ccncc1 |  | 156 | 
47 | O=C(O)c1c(F)c(F)c(F)c(F)c1F | 220 | 101 | 
48 | CCC(CC)COC(C)=O | 162 |  | 
49 | C#CCC=C | 42.5 |  | 
50 | CCC(=O)Nc1ccccc1 | 222 | 106 | ready biodegradability: not readily biodegradable
51 | NCCCNCCCN |  | -14 | 
52 | CC(=O)N1CCCC(C)C1 (configuration not stated) | 239 | -13.6 | 

Row | Structure (SMILES) | boiling point [°C] | melting point [°C] | also measured
53 | CC1=C(/C=C/C(C)=C/C=C/C(C)=C/C=C/C=C(C)/C=C/C=C(C)/C=C/C2=C(C)C(=O)CCC2(C)C)C(C)(C)CCC1 |  | 179 | 
54 | CCOC(=O)c1ccccc1 | 212 | -34 | log10 Koc (L/kg): 2.3; log10 vapour pressure (mmHg): -0.574
55 | O=c1cnn([C@@H]2O[C@H](CO)[C@@H](O)[C@H]2O)c(=O)[nH]1 |  | 158 | 
56 | C#CC(C)(C)NC(=O)c1cc(Cl)cc(Cl)c1 |  | 155 | log10 Koc (L/kg): 2.31; log10 vapour pressure (mmHg): -6.36
57 | Nc1ccc2c(c1)Cc1ccccc1-2 |  | 129 | 
58 | CC(C)C=CCl | 87 |  | 
59 | C[C@@H]1CC[C@@H](C)S1 | 142 | -89 | 
60 | CCSSCC | 154 | -102 | log10 Henry constant (atm·m³/mol): -2.67; log10 vapour pressure (mmHg): 0.631; solubility: 2450 µM (≈ 300 µg/mL)
61 | COc1cc2c(c(O)c1OC)CNCC2 |  | 188 | 
62 | CN1CCN(CCCN2c3ccccc3Sc3ccc(Cl)cc32)CC1 |  | 228 | 
63 | CC1CC(C)CC(O)C1 (configuration not stated) | 187 | 11.6 | 
64 | COc1cc(C(=O)NCCCCCC(=O)O)cc(OC)c1OC |  | 122 | 
65 | Cc1coc(C)n1 | 108 |  | 
66 | c1ccc(CNCCNCc2ccccc2)cc1 |  | 26 | 
67 | Cc1ccc(C)c(Br)c1 | 199 | 9 | 
68 | CC(=O)n1ccnc1 |  | 102 | 
69 | Cc1ccc(C)c2c1C(=O)c1ccccc1C2=O |  | 140 | 
70 | Clc1ccc(Cl)c2ncccc12 |  | 97.5 | 
71 | CC(C)=CCC/C(C)=C/CO | 228 |  | log10 vapour pressure (mmHg): -1.52; ready biodegradability: readily biodegradable
72 | O=C(Nc1ccccc1)Nc1ccccc1 | 262 | 239 | log10 vapour pressure (mmHg): -5.12
73 | CC(C)(C)OC=O | 82.5 |  | log10 Henry constant (atm·m³/mol): -3.16
74 | ClCc1cccc(Cl)c1 | 216 |  | 
75 | O=[PH](O)c1ccccc1 |  | 84 | log10 BCF (fish): 0.78
76 | CCN(CC)C(=O)C(Cl)(Cl)Cl |  | 27 | 
77 | CCC(C)CC | 63.2 | -163 | log10 vapour pressure (mmHg): 2.28
78 | CC(C)CCC[C@@H](C)[C@H]1CC[C@H]2[C@@H]3CC[C@@H]4C[C@H](O)CC[C@]4(C)[C@H]3CC[C@]12C |  | 143 | 

Row | Structure (SMILES) | boiling point [°C] | melting point [°C] | also measured
79 | Clc1c(Cl)c(Cl)c(C(Cl)Cl)c(Cl)c1Cl | 334 | 120 | 
80 | CON(C)C(=O)Nc1ccc(Cl)cc1 |  | 81.5 | log10 Koc (L/kg): 2.1; log10 vapour pressure (mmHg): -3.82; log10 BCF (fish): 1.15
81 | N#Cc1cccc(O)c1 |  | 80 | 
82 | CC(C)(C)C#N | 106 | 15 | log10 vapour pressure (mmHg): 1.54
83 | C[C@@H]1O[C@@H](O)[C@H](O)[C@H](O)[C@H]1O |  | 140 | 
84 | CC(=O)Oc1ccc(OC(C)=O)cc1 |  | 124 | 
85 | CCC1CCC1 | 70.8 | -143 | 
86 | CCOC(=O)CN(C(=O)CCl)c1c(CC)cccc1CC |  | 49.5 | log10 Koc (L/kg): 2
87 | CC=Cc1ccc(OCC)c(O)c1 |  | 87 | 
88 | CC(C)COC(=O)c1ccc(C(=O)OCC(C)C)cc1 |  | 55 | 
89 | CCOC(=O)CC(C)C(=O)OCC (configuration not stated) | 218 |  | 
90 | c1ccc2c(c1)cc1c3ccccc3c3cccc4ccc2c1c43 |  | 234 | 
91 | CC(C)OC(=O)CCCCC(=O)OC(C)C |  | -1.1 | 
92 | C=CCC(C(=O)NC(N)=O)C(C)C (configuration not stated) |  | 194 | 
93 | CC1(C)OC(=O)NC1=O |  | 76.5 | 
94 | ClCc1ccc(Cl)c(Cl)c1 | 241 | 37.5 | ready biodegradability: not readily biodegradable
95 | Nc1c(O)cccc1[N+](=O)[O-] |  | 216 | 
96 | Clc1ccc2oc3c(Cl)c(Cl)c(Cl)c(Cl)c3c2c1Cl |  |  | log10 Koa: 10.9
97 | O=C(O)CCCCCl | 230 | 18 | 
98 | C[C@]12C[C@H]3S[C@H]3C[C@@H]1CC[C@@H]1[C@@H]2CC[C@]2(C)[C@@H](O)CC[C@@H]12 |  | 127 | 
99 | COCCOc1cnc(NS(=O)(=O)c2ccccc2)nc1 |  | 153 | 
100 | O=C(O)CCC(=O)Nc1ccc(S(=O)(=O)Nc2nccs2)cc1 |  | 194 | 
101 | CCOC1Oc2ccc(OS(C)(=O)=O)cc2C1(C)C (configuration not stated) |  | 71 | log10 Koc (L/kg): 2.53; log10 vapour pressure (mmHg): -5.31
102 | CCCCCCCCCCCCCCCC(=O)OC(=O)CCCCCCCCCCCCCCC |  | 64 | 
103 | CCOC(=O)C=CC(=O)O |  | 70 | 
104 | C=COC(C)=O | 72.5 | -93.2 | log10 vapour pressure (mmHg): 1.96; ready biodegradability: readily biodegradable

Row | Structure (SMILES) | boiling point [°C] | melting point [°C] | also measured
105 | CC#CCCO | 154 |  | 
106 | CCC(C(C)=O)C(=O)OC (configuration not stated) | 182 |  | 
107 | OCCCO | 214 | -26.7 | log10 vapour pressure (mmHg): -1.36
108 | Nc1c(Oc2ccc(Br)cc2)cc(O)c2c1C(=O)c1ccccc1C2=O |  |  | ready biodegradability: not readily biodegradable; log10 BCF (fish): 2.05
109 | CCCCCCCCCCCCCCCCCCCBr |  |  | log10 vapour pressure (mmHg): -5.65
110 | O[C@@H]1CC[C@H](O)C1 |  | 35.5 | 
111 | COCC(F)F | 48.5 |  | log10 vapour pressure (mmHg): 2.48
112 | Cc1cc2ccccc2c2ccc3ccccc3c12 |  | 118 | 
113 | COc1cccc(S)c1 | 224 |  | 
114 | COc1cccc(C(=O)O)c1O |  | 151 | 
115 | CC(Br)CCl (configuration not stated) | 118 |  | 
116 | CCc1ccc(Cl)cc1 | 184 | -62.6 | 
117 | CC1=C(/C=C/C(C)=C/C=C/C(C)=C/CO)C(C)(C)CCC1 |  | 63.5 | 
118 | CC(O)C1CCCCC1 (configuration not stated) | 189 |  | 
119 | Brc1ccccc1-c1ccccc1 | 297 | 1.5 | 
120 | NCCNCCN | 207 | -39 | ready biodegradability: not readily biodegradable; log10 BCF (fish): 0.65
121 | CC(=O)Nc1ccc(OCC(O)CNC(C)C)cc1 (configuration not stated) |  | 135 | 
122 | O=C(O)C=Cc1ccccc1 |  |  | ready biodegradability: readily biodegradable
123 | O=c1cc(O)c2ccccc2o1 |  | 214 | 
124 | Nc1ccc([N+](=O)[O-])cc1C(=O)c1ccccc1 |  | 163 | 
125 | CCN(CC)C(=O)c1cccc(C)c1 | 290 | -45 | log10 vapour pressure (mmHg): -2.7; ready biodegradability: not readily biodegradable; log10 BCF (fish): 0.38
126 | CCCCCCCCCCC(=O)CC |  | 31 | 
